Data: patent US20050245527A1, “Nitrogen containing heterocyclic compounds and medicines containing the same” (priority 2002, published 2005)
Structures can show the parent of a compound that is named as a salt.

Tested on: sodium channels
Type: cell-based
Conditions: read-out: IC50 (μM), sodium channel-inhibiting activity; rat fetal cultured hippocampal neurons, SBFI fluorescence in the presence of 4-aminopyridine, 5 minutes after addition, 1 μM tetrodotoxin = 100%

| Structure (SMILES) | IC50 [µM] |
| --- | --- |
| CCOc1ccccc1OCC1CCN(Cc2ncc[nH]c2=O)CC1 [Example 165, 3-[4-(2-Ethoxyphenoxymethyl)piperidino]methyl-1H-pyrazin-2-one] | 8.4 |
| O=c1[nH]ccnc1CN1CCC(SCc2ccccc2F)CC1 [Example 411, 3-[4-(2-Fluorobenzylthio)piperidino]methyl-1H-pyrazin-2-one] | 4.8 |
| CCCOc1ccccc1CC(=O)C1CCN(Cc2ncc[nH]c2=O)CC1 [Example 348, 3-[4-[2-(2-n-Propoxyphenyl)acetyl]piperidino]methyl-1H-pyrazin-2-one] | 2.6 |
| O=c1cncc(CCN2CCC(COc3ccccc3)CC2)[nH]1 [Example 245, 6-[2-[4-(Phenoxymethyl)piperidino]ethyl]-1H-pyrazin-2-one] | 4.4 |
| O=C(Cc1cccc(F)c1)C1CCN(Cc2ncc[nH]c2=O)CC1 [Example 191, 3-[4-[2-(3-Fluorophenyl)acetyl]piperidino]methyl-1H-pyrazin-2-one] | 7.1 |
| COc1cccc(OCC2CCN(Cc3ncc[nH]c3=O)CC2)c1 [Example 161, 3-[4-(3-Methoxyphenoxymethyl)piperidino]methyl-1H-pyrazin-2-one] | 3.5 |
| O=c1[nH]ccnc1CN1CCC(CCOc2ccccc2F)CC1 [Example 159, 3-[4-[2-(2-Fluorophenoxy)ethyl]piperidino]methyl-1H-pyrazin-2-one] | 9.4 |
| CON=C(Cc1ccccc1F)C1CCN(Cc2ncc[nH]c2=O)CC1 [Example 203, 3-[4-[2-(2-Fluorophenyl)-1-(methoxyimino)ethyl]piperidino]methyl-1H-pyrazin-2-one] | 2.3 |
| CCOC(=O)C1(CCc2ccccc2)CCN(Cc2ccc[nH]c2=O)CC1 [Example 255, 3-[4-(Ethoxycarbonyl)-4-(2-phenylethyl)piperidino]methyl-1H-pyridin-2-one] | 3.1 |
| Cn1c(CCN2CCC(COc3ccccc3F)CC2)cncc1=O [Example 249, 6-[2-[4-(2-Fluorophenoxymethyl)piperidino]ethyl]-1-methyl-1H-pyrazin-2-one] | 3.2 |
| O=C1CN(Cc2ncc[nH]c2=O)CCC1CCc1ccccc1F (centres unmarked) [Example 371, 3-[4-[2-(2-Fluorophenyl)ethyl]-3-oxopiperidino]methyl-1H-pyrazin-2-one] | 9 |
| O=c1cncc(CCN2CCC3(CC2)CC(Oc2ccccc2F)C3)[nH]1 [Example 119, 6-[2-[2-(2-Fluorophenoxy)-7-azaspiro[3.5]non-7-yl]ethyl]-1H-pyrazin-2-one] | 8.4 |
| O=c1[nH]ccnc1CN1CCCCC1CCOc1ccccc1F (centres unmarked) [Example 209, 3-[2-[2-(2-Fluorophenoxy)ethyl]piperidino]methyl-1H-pyrazin-2-one] | 2.1 |
| Cc1ccc(-c2ccccc2)n1CC1CCN(Cc2ncc[nH]c2=O)CC1 [Example 182, 3-[4-(2-Methyl-5-phenylpyrrol-1-yl)methyl-piperidino]methyl-1H-pyrazin-2-one] | 7.8 |
| O=c1[nH]ccnc1CN1CCC(C[S+]([O-])c2ccccc2F)CC1 (centres unmarked) [Example 337, 3-[4-[(2-Fluorophenylsulfinyl)methyl]piperidino]methyl-1H-pyrazin-2-one] | 6.5 |
| O=c1[nH]ccnc1CN1CCC(c2nc(-c3ccc(F)cc3)no2)CC1 [Example 189, 3-[4-[3-(4-Fluorophenyl)-1,2,4-oxadiazol-5-yl]piperidino]methyl-1H-pyrazin-2-one] | 7.2 |
| CC1(COc2ccccc2Cl)CCN(Cc2ncc[nH]c2=O)CC1 [Example 354, 3-[4-(2-Chlorophenoxymethyl)-4-methylpiperidino]methyl-1H-pyrazin-2-one] | 2.8 |
| O=c1[nH]ccnc1CN1CCC(COc2ccc(F)cc2)CC1 [Example 199, 3-[4-(4-Fluorophenoxymethyl)piperidino]methyl-1H-pyrazin-2-one] | 6.2 |
| O=c1cncc(CCN2CCC(O)(COc3ccccc3F)CC2)[nH]1 [Example 118, 6-[2-[4-Hydroxy-4-(2-fluorophenoxymethyl)piperidino]ethyl]-1H-pyrazin-2-one] | 3.1 |
| O=C(Cc1cccc2ccccc12)C1CCN(Cc2ncc[nH]c2=O)CC1 [Example 353, 3-[4-[2-(1-Naphthyl)acetyl]piperidino]methyl-1H-pyrazin-2-one] | 1.7 |
| O=c1[nH]ccnc1CN1CCCC(COc2ccccc2F)CC1 (centres unmarked) [Example 388, 3-[4-(2-Fluorophenoxymethyl)azepan-1-yl]methyl-1H-pyrazin-2-one] | 4.7 |
| N#Cc1ccccc1OCC1CCN(Cc2ncc[nH]c2=O)CC1 [Example 166, 3-[4-(2-Cyanophenoxymethyl)piperidino]methyl-1H-pyrazin-2-one] | 8.7 |
| O=C(Cc1ccccc1)C1CCN(Cc2ncc[nH]c2=O)CC1 [Example 196, 3-[4-(2-Phenylacetyl)piperidino]methyl-1H-pyrazin-2-one] | 6.2 |
| O=c1[nH]ccnc1CN1CCOC(CCc2ccccc2F)C1 (centres unmarked) [Example 340, 3-[3-[2-(2-Fluorophenyl)ethyl]morpholin-1-yl]methyl-1H-pyrazin-2-one] | 7.1 |

| Structure (SMILES) | IC50 [µM] |
| --- | --- |
| O=c1[nH]ccnc1CN1CCC(CO)(CCc2ccccc2)CC1 [Example 219, 3-[4-Hydroxymethyl-4-(2-phenylethyl)piperidino]methyl-1H-pyrazin-2-one] | 1.6 |
| O=C(Cc1ccccc1C(F)(F)F)C1(F)CCN(Cc2ncc[nH]c2=O)CC1 [Example 372, 3-[4-Fluoro-4-[2-[2-(trifluoromethyl)phenyl]acetyl]piperidino]methyl-1H-pyrazin-2-one] | 3.3 |
| O=c1[nH]ccnc1CN1CCC2(CC1)CC(Oc1ccccc1F)C2 [Example 226, 3-[2-(2-Fluorophenoxy)-7-azaspiro[3.5]non-7-yl]methyl-1H-pyrazin-2-one] | 4.5 |
| O=c1[nH]ccnc1CN1CCC([S+]([O-])Cc2ccccc2F)CC1 (centres unmarked) [Example 398, 3-[4-(2-Fluorobenzylsulfinyl)piperidino]methyl-1H-pyrazin-2-one] | 3.4 |
| COc1ccccc1OCC1(C)CCN(Cc2ncc[nH]c2=O)CC1 [Example 356, 3-[4-(2-Methoxyphenoxymethyl)-4-methylpiperidino]methyl-1H-pyrazin-2-one] | 2.9 |
| CC(Oc1ccccc1F)C1CCN(Cc2ncc[nH]c2=O)CC1 (centres unmarked) [Example 175, 3-[4-[1-(2-Fluorophenoxy)ethyl]piperidino]methyl-1H-pyrazin-2-one] | 2.6 |
| O=c1cncc(CCN2CCCC(COc3ccccc3F)C2)[nH]1 (centres unmarked) [Example 117, 6-[2-[3-(2-Fluorophenoxymethyl)piperidino]ethyl]-1H-pyrazin-2-one] | 4.4 |
| Cc1ccccc1OCC1(C)CCN(Cc2ncc[nH]c2=O)CC1 [Example 355, 3-[4-Methyl-4-(2-methylphenoxymethyl)piperidino]methyl-1H-pyrazin-2-one] | 2.5 |
| O=C(Cc1ccccc1F)C1CCN(Cc2ccn[nH]c2=O)CC1 [Example 364, 4-[4-[2-(2-Fluorophenyl)acetyl]piperidino]methyl-2H-pyridazin-3-one] | 9.3 |
| O=c1[nH]ccnc1CN1CCC(CC(O)c2ccccc2F)CC1 (centres unmarked) [Example 144, 3-[4-[2-(2-Fluorophenyl)-2-hydroxyethyl]piperidino]methyl-1H-pyrazin-2-one] | 5.8 |
| O=c1[nH]ccnc1CN1CCC(/C=C/c2ccccc2OCC2CCCCC2)CC1 [Example 412, (E)-3-[4-[2-[2-(Cyclohexylmethyloxy)phenyl]vinyl]piperidino]methyl-1H-pyrazin-2-one oxalate] | 1.2 |
| O=C(Cc1ccccc1F)C1CCN(Cc2nc3ccccc3[nH]c2=O)CC1 [Example 206, 3-[4-[2-(2-Fluorophenyl)acetyl]piperidino]methyl-1H-quinoxalin-2-one] | 5.2 |
| COc1ccccc1OCC1CCN(CCc2cncc(=O)[nH]2)CC1 [Example 240, 6-[2-[4-(2-Methoxyphenoxymethyl)piperidino]ethyl]-1H-pyrazin-2-one] | 6.4 |
| C[C@H]1C[C@H](C(=O)Cc2ccccc2F)CCN1Cc1ncc[nH]c1=O (relative stereo) [Example 414, trans-3-[4-[2-(2-Fluorophenyl)acetyl]-2-methylpiperidino]methyl-1H-pyrazin-2-one] | 7.9 |
| O=c1[nH]ccnc1CN1CCC(/C=C/c2sccc2F)CC1 [Example 173, (E)-3-[4-[2-(3-Fluoro-2-thienyl)vinyl]piperidino]methyl-1H-pyrazin-2-one] | 4.3 |
| N#CC1(COc2ccccc2F)CCN(Cc2ncc[nH]c2=O)CC1 [Example 221, 3-[4-Cyano-4-(2-fluorophenoxymethyl)piperidino]methyl-1H-pyrazin-2-one] | 4.9 |
| Cc1ccccc1CCC1(O)CCN(Cc2ccc[nH]c2=O)CC1 [Example 125, 3-[4-Hydroxy-4-[2-(2-methylphenyl)ethyl]piperidino]methyl-1H-pyridin-2-one] | 5 |
| O=C(Cc1cccc2c1OCC2)C1CCN(Cc2ncc[nH]c2=O)CC1 [Example 410, 3-[4-[2-(2,3-Dihydrobenzofuran-7-yl)acetyl]piperidino]methyl-1H-pyrazin-2-one] | 5.7 |
| CC(c1ncc[nH]c1=O)N1CCC(COc2ccccc2F)CC1 (centres unmarked) [Example 395, 3-[1-[4-(2-Fluorophenoxymethyl)piperidino]ethyl]-1H-pyrazin-2-one oxalate] | 6.7 |
| O=c1cncc(CCN2CCC(C#Cc3ccccc3F)CC2)[nH]1 [Example 244, 6-[2-[4-[(2-Fluorophenyl)ethynyl]piperidino]ethyl]-1H-pyrazin-2-one] | 3.1 |
| C[C@@H]1CN(Cc2ncc[nH]c2=O)CC[C@H]1C(=O)Cc1ccccc1F (relative stereo) [Example 366, trans-3-[4-[2-(2-Fluorophenyl)acetyl]-3-methylpiperidino]methyl-1H-pyrazin-2-one] | 4.2 |
| O=C(Cc1ccccc1-c1ccccc1)C1CCN(Cc2ncc[nH]c2=O)CC1 [Example 359, 3-[4-[2-(2-Biphenyl)acetyl]piperidino]methyl-1H-pyrazin-2-one] | 1.4 |
| O=C(Cc1cc(F)ccc1F)C1CCN(Cc2ncc[nH]c2=O)CC1 [Example 194, 3-[4-[2-(2,5-Difluorophenyl)acetyl]piperidino]methyl-1H-pyrazin-2-one] | 6.6 |
